Data taken from ChEMBL document CHEMBL4024727, “Synthesis and antimycobacterial screening of new thiazolyl-oxazole derivatives” (Eur J Med Chem, 2017).
Values after ≈ are worked out from the molar mass of the structure shown.

Columns and labels:
[1] = tested on: Bacillus subtilis; assay: Growth inhibition of Bacillus subtilis NCIM 2162 at 30 ug/ml measured after 12 hrs relative to control; type: functional; details: NCIM 2162, 12 h, read-out: GI
[2] = tested on: Staphylococcus aureus; assay: Growth inhibition of Staphylococcus aureus NCIM 2602 at 10 ug/ml measured after 12 hrs relative to control; type: functional; details: NCIM 2602, 12 h, read-out: GI
[3] = tested on: Mycobacterium tuberculosis; assay: Antitubercular activity against Mycobacterium bovis BCG ATCC 35743 dormant stage by nitrate reductase based two-fold dilution assay; type: functional; details: BCG str. ATCC 35743
[4] = tested on: Mycobacterium tuberculosis; assay: Antitubercular activity against Mycobacterium tuberculosis H37Ra ATCC 25177 dormant stage by XTT dye based two-fold dilution method; type: functional
[5] = tested on: Mycobacterium tuberculosis; assay: Growth inhibition of Mycobacterium bovis BCG ATCC 35743 at 30 ug/ml by nitrate reductase based two-fold dilution assay relative to control; type: functional; details: BCG str. ATCC 35743, read-out: GI
[6] = tested on: Mycobacterium tuberculosis; assay: Growth inhibition of Mycobacterium tuberculosis H37Ra ATCC 25177 at 10 ug/ml by XTT dye based two-fold dilution method relative to control; type: functional; details: read-out: GI
[7] = tested on: Bacillus subtilis; assay: Growth inhibition of Bacillus subtilis NCIM 2162 at 10 ug/ml measured after 12 hrs relative to control; type: functional; details: NCIM 2162, 12 h, read-out: GI
[8] = tested on: Bacillus subtilis; assay: Antibacterial activity against Bacillus subtilis NCIM 2162 measured after 12 hrs; type: functional; details: NCIM 2162, 12 h
[9] = tested on: Staphylococcus aureus; assay: Growth inhibition of Staphylococcus aureus NCIM 2602 at 30 ug/ml measured after 12 hrs relative to control; type: functional; details: NCIM 2602, 12 h, read-out: GI
[10] = tested on: Escherichia coli; assay: Growth inhibition of Escherichia coli NCIM 2576 at 10 ug/ml measured after 8 hrs relative to control; type: functional; details: NCIM 2576, 8 h, read-out: GI
[11] = tested on: Bacillus subtilis; assay: Growth inhibition of Bacillus subtilis NCIM 2162 at 1 ug/ml measured after 12 hrs relative to control; type: functional; details: NCIM 2162, 12 h, read-out: GI
[12] = tested on: Pseudomonas fluorescens; assay: Growth inhibition of Pseudomonas fluorescens NCIM 2059 at 1 ug/ml measured after 8 hrs relative to control; type: functional; details: NCIM 2059, 8 h, read-out: GI
[13] = tested on: Escherichia coli; assay: Growth inhibition of Escherichia coli NCIM 2576 at 30 ug/ml measured after 8 hrs relative to control; type: functional; details: NCIM 2576, 8 h, read-out: GI
[14] = tested on: Escherichia coli; assay: Growth inhibition of Escherichia coli NCIM 2576 at 1 ug/ml measured after 8 hrs relative to control; type: functional; details: NCIM 2576, 8 h, read-out: GI
[15] = tested on: Pseudomonas fluorescens; assay: Antibacterial activity against Pseudomonas fluorescens NCIM 2059 measured after 8 hrs; type: functional; details: NCIM 2059, 8 h
[16] = tested on: Escherichia coli; assay: Antibacterial activity against Escherichia coli NCIM 2576 measured after 8 hrs; type: functional; details: NCIM 2576, 8 h
[17] = tested on: Staphylococcus aureus; assay: Antibacterial activity against Staphylococcus aureus NCIM 2602 measured after 12 hrs; type: functional; details: NCIM 2602, 12 h
[18] = tested on: Pseudomonas fluorescens; assay: Growth inhibition of Pseudomonas fluorescens NCIM 2059 at 10 ug/ml measured after 8 hrs relative to control; type: functional; details: NCIM 2059, 8 h, read-out: GI
[19] = tested on: Mycobacterium tuberculosis; assay: Growth inhibition of Mycobacterium bovis BCG ATCC 35743 at 10 ug/ml by nitrate reductase based two-fold dilution assay relative to control; type: functional; details: BCG str. ATCC 35743, read-out: GI
[20] = tested on: Staphylococcus aureus; assay: Growth inhibition of Staphylococcus aureus NCIM 2602 at 1 ug/ml measured after 12 hrs relative to control; type: functional; details: NCIM 2602, 12 h, read-out: GI
[21] = tested on: Mycobacterium tuberculosis; assay: Growth inhibition of Mycobacterium bovis BCG ATCC 35743 at 1 ug/ml by nitrate reductase based two-fold dilution assay relative to control; type: functional; details: BCG str. ATCC 35743, read-out: GI
[22] = tested on: Mycobacterium tuberculosis; assay: Growth inhibition of Mycobacterium tuberculosis H37Ra ATCC 25177 at 30 ug/ml by XTT dye based two-fold dilution method relative to control; type: functional; details: read-out: GI
[23] = tested on: Mycobacterium tuberculosis; assay: Growth inhibition of Mycobacterium tuberculosis H37Ra ATCC 25177 at 3 ug/ml by XTT dye based two-fold dilution method relative to control; type: functional; details: read-out: GI
[24] = tested on: Pseudomonas fluorescens; assay: Growth inhibition of Pseudomonas fluorescens NCIM 2059 at 30 ug/ml measured after 8 hrs relative to control; type: functional; details: NCIM 2059, 8 h, read-out: GI
[25] = tested on: PANC-1; assay: (§1) Growth inhibition of human PANC1 cells by MTT assay; type: cell-based; details: panc-1
[26] = tested on: A549; assay: (§2) Growth inhibition of human A549 cells by MTT assay; type: cell-based; details: a549
[27] = tested on: HeLa; assay: (§3) Growth inhibition of human HeLa cells by MTT assay; type: cell-based; details: hela
[28] = as §1; type: cell-based, PANC-1; details: PANC-1 cells
[29] = as §2; type: cell-based; details: A549 cells
[30] = as §3; type: cell-based; details: HeLa cells

Row | Compound | inhibition of growth at 30 µg/mL [1] [%] | inhibition of growth at 10 µg/mL [2] [%] | IC50 [3] [µM] | MIC90 [3] [µM] | IC50 [4] [µM] | MIC90 [4] [µM] | inhibition of growth at 30 µg/mL [5] [%] | inhibition of growth at 10 µg/mL [6] [%] | inhibition of growth at 10 µg/mL [7] [%] | MIC [8] [µM] | inhibition of growth at 30 µg/mL [9] [%] | inhibition of growth at 10 µg/mL [10] [%] | inhibition of growth at 1 µg/mL [11] [%] | inhibition of growth at 1 µg/mL [12] [%] | inhibition of growth at 30 µg/mL [13] [%] | inhibition of growth at 1 µg/mL [14] [%] | inhibition of growth at 10 µg/mL [19] [%] | inhibition of growth at 1 µg/mL [21] [%] | inhibition of growth at 30 µg/mL [22] [%] | inhibition of growth at 3 µg/mL [23] [%] | other results
1 | Cc1nc(-c2ccc(F)cc2)oc1-c1csc(-c2ccc(Br)cc2)n1 | 68.2 | 56.6 | > 100 | > 100 | > 100 | > 100 | 42 | 45 | 51.8 | > 100 | 67.8 | 60.7 | 46.5 | 48.6 | 69 | 48.9 | 36 | 28 | 54 | 43 | MIC [15]: > 100 µM; MIC [16]: > 100 µM; MIC [17]: > 100 µM; inhibition of growth at 10 µg/mL [18]: 54.2%; inhibition of growth at 1 µg/mL [20]: 44.1%; inhibition of growth at 30 µg/mL [24]: 68.3%
2 | Cc1nc(-c2ccc(F)cc2)oc1-c1csc(-c2ccc(F)c(Cl)c2)n1 | 69.4 | 55.2 | > 100 | > 100 | > 100 | > 100 | 29 | 11 | 55.6 | > 100 | 63 | 55.9 | 41.2 | 44.3 | 64.2 | 45.7 | 23 | 21 | 13 | 6 | MIC [15]: > 100 µM; MIC [16]: > 100 µM; MIC [17]: > 100 µM; inhibition of growth at 10 µg/mL [18]: 56.2%; inhibition of growth at 1 µg/mL [20]: 45.7%; inhibition of growth at 30 µg/mL [24]: 65.8%
3 | Cc1nc(-c2ccc(F)cc2)oc1-c1csc(-c2ccccc2)n1 | 53.3 | 40.7 | > 100 | > 100 | > 100 | > 100 | 33 | 13 | 47.8 | > 100 | 58.8 | 47.8 | 21 | 22.4 | 50.7 | 21.3 | 32 | 28 | 31 | 13 | MIC [15]: > 100 µM; MIC [16]: > 100 µM; MIC [17]: > 100 µM; inhibition of growth at 10 µg/mL [18]: 41.9%; inhibition of growth at 1 µg/mL [20]: 24%; inhibition of growth at 30 µg/mL [24]: 53.1%
4 | Cc1nc(-c2ccc(F)cc2)oc1-c1csc(Cc2ccc(Cl)cc2)n1 | 27.6 | 14.1 | > 100 | > 100 | > 100 | > 100 | 42 | 25 | 13.9 | > 100 | 21.1 | 16.1 | 9.95 | 4.37 | 21 | 7.55 | 32 | 24 | 39 | 9 | MIC [15]: > 100 µM; MIC [16]: > 100 µM; MIC [17]: > 100 µM; inhibition of growth at 10 µg/mL [18]: 20.1%; inhibition of growth at 1 µg/mL [20]: 5.76%; inhibition of growth at 30 µg/mL [24]: 20.9%
5 | Cc1nc(-c2ccc(F)cc2)oc1-c1csc(-c2ccc(Cl)cc2)n1 | 20.5 | 19.5 | > 100 | > 100 | > 100 | > 100 | 33 | 4 | 12.9 | > 100 | 25.8 | 10.4 | 4.2 | 0.52 | 24.9 | 5.86 | 29 | 25 | 13 | 3 | MIC [15]: > 100 µM; MIC [16]: > 100 µM; MIC [17]: > 100 µM; inhibition of growth at 10 µg/mL [18]: 20.7%; inhibition of growth at 1 µg/mL [20]: 8.6%; inhibition of growth at 30 µg/mL [24]: 21.5%
6 | Cc1nc(-c2ccc(F)cc2)oc1-c1csc(-c2cccc(Cl)c2)n1 | 50.8 | 35.7 | > 100 | > 100 | > 100 | > 100 | 32 | 29 | 40.6 | > 100 | 48.1 | 40.5 | 28.8 | 24.8 | 49.5 | 23.4 | 24 | 23 | 32 | 29 | MIC [15]: > 100 µM; MIC [16]: > 100 µM; MIC [17]: > 100 µM; inhibition of growth at 10 µg/mL [18]: 38.3%; inhibition of growth at 1 µg/mL [20]: 28.5%; inhibition of growth at 30 µg/mL [24]: 48.3%
7 | CC(=O)O[C@H]1C(=O)[C@@]2(C)[C@H]([C@H](OC(=O)c3ccccc3)[C@]3(O)C[C@H](OC(=O)[C@H](O)[C@@H](NC(=O)c4ccccc4)c4ccccc4)C(C)=C1C3(C)C)[C@]1(OC(C)=O)CO[C@@H]1C[C@@H]2O [PACLITAXEL] |  |  |  |  |  |  |  |  |  |  |  |  |  |  |  |  |  |  |  |  | GI90 [25]: 5.715 µg/mL (≈ 6.69 µM); GI90 [26]: 0.0706 µg/mL (≈ 0.0827 µM); GI90 [27]: 0.075 µg/mL (≈ 0.0878 µM)
8 | CO[C@H]1/C=C/O[C@@]2(C)Oc3c(C)c(O)c4c(O)c(c(/C=N/N5CCN(C)CC5)c(O)c4c3C2=O)NC(=O)/C(C)=C\C=C\[C@H](C)[C@H](O)[C@@H](C)[C@@H](O)[C@@H](C)[C@H](OC(C)=O)[C@@H]1C [RIFAMPIN] |  |  | 0.04 | 0.98 (≈ 0.806 µg/mL) | 0.0024 | 0.91 (≈ 0.749 µg/mL) | 99 | 98 |  |  |  |  |  |  |  |  | 96.8 | 94.6 | 99.5 | 96.4 | GI50 [28]: > 100 µg/mL; GI90 [25]: > 100 µg/mL; GI50 [29]: > 100 µg/mL; GI90 [26]: > 100 µg/mL; GI90 [27]: > 100 µg/mL; GI50 [30]: > 100 µg/mL
